Measured values published in article PMC6777825, “Differential scanning fluorimetric analysis of the amino-acid binding to taste receptor using a model receptor protein, the ligand-binding domain of fish T1r2a/T1r3” (PLoS ONE, 2019).
Where two headings read alike, the source gives them in different places.

Tests used:
medaka T1r2a/T1r3LBD = medaka T1r2a/T1r3LBD (Oryzias latipes, UniProt A0A173M094+A0A173M0G2); assay: Differential scanning fluorimetry (DSF) thermal shift ligand-binding assay; parameters: species or system O. latipes; settings: for ΔTm: average ± s.e.m., n = 4; for effect on thermal stability / Tm shift of T1r2a/T1r3LBD (in words): DSF, 0.1-10 mM amino acid; for Tm shift (in words): adding up to 10 mM
medaka T1r2a/T1r3LBD, sequence (A0A173M094 entry or part of it): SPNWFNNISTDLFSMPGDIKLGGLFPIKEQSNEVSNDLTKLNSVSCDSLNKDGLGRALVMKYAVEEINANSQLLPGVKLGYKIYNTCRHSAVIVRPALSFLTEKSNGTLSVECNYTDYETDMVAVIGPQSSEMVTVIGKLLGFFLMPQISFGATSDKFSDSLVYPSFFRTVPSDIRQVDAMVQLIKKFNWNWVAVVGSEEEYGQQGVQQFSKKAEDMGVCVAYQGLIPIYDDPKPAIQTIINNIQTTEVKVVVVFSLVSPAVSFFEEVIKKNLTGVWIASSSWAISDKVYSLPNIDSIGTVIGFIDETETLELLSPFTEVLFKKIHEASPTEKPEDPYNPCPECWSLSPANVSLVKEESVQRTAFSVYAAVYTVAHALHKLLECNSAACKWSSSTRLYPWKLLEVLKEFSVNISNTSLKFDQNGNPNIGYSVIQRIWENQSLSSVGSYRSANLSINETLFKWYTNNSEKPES
medaka T1r2a/T1r3LBD, sequence (A0A173M0G2 entry or part of it): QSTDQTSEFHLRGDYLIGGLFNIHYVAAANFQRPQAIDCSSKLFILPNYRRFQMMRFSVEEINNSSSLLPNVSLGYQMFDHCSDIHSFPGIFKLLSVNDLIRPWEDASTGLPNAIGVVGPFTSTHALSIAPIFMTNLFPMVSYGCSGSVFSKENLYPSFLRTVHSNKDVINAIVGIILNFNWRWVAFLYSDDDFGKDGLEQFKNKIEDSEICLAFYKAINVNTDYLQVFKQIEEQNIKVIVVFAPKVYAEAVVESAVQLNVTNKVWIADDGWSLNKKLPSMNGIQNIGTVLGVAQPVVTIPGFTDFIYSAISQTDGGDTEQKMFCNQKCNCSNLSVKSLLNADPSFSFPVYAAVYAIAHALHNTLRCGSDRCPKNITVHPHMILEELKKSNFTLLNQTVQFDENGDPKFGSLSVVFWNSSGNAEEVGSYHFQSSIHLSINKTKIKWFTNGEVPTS
Protocol: The protein sample was prepared as described previously. Briefly, Drosophila S2 cells (Invitrogen) stably expressing C-terminal FLAG-tagged T1r2aLBD and T1r3LBD [11, 21] were cultured in ExpressFiveSFM (LifeTechnologies) for five days at 27 °C. The T1r2a/T1r3-LBD protein was purified from the culture medium by the use of ANTI-FLAG M2 Affinity Gel (SIGMA). The purified protein was dialyzed against the assay buffer (20 mM Tris-HCl, 300 mM NaCl, 2 mM CaCl2, pH 8.0).
The protein sample (~1 μg) was mixed with Protein Thermal Shift Dye (Applied Biosystems) and 10~10,000 μM concentration of each amino acid in 20 μL of assay buffer and loaded to a MicroAmpR Fast Optical 48-Well Reaction Plate (Applied Biosystems). Specifically, to minimize the changes of the chemical and optical condition, the amino acid solutions were prepared by the exact same buffer used for the final dialysis of the protein, followed by the re-adjustment of the pH to ~ 8.0 by addition of either NaOH or HCl, and mixed with the protein diluted with the same buffer.
Fluorescent intensity was measured by the StepOne Real-Time PCR System (Applied Biosystems). The temperature was raised from 25 °C to 99 °C with a velocity of 0.022 °C/sec. The reporter and quencher for detection were set as “ROX” and “none”, respectively. Apparent melting transition temperature (Tm) was determined by the use of the maximum of the derivatives of the melt curve (dFluorescence/dT) by Protein Thermal Shift Software version 1.3 (Applied Biosystems).
The apparent dissociation constant (Kd-app) derived from the DSF results was estimated based on Eq 1 proposed by Schellman, assuming that the unfolding of the protein is reversible: ΔTm=Tm−T0=TmT0R/ΔH^0ln(1+[L]/Kd-app) (1) where [L] is the ligand concentration; Tm and T0 are the apparent melting transition temperatures in the presence and absence of the ligand; R is the gas constant; ΔH^0 is the enthalpy of unfolding at T0, assuming that there are no significant variations under the tested conditions. If the melt curves show biphasic profiles, the second (or the right side) Tm values were adopted for calculation, as described in the Results section.
For multiple regression analyses shown in Fig 2B, the apparent Tm values determined at different ligand concentrations were fitted to Eq 1 by using KaleidaGraph (Synergy Software), assuming that the change of the dissociation constant accompanied by the Tm shift is negligible.

[1] = target: T1r2a/T1r3 full-length receptor (Oryzias latipes, UniProt A0A173M094+A0A173M0G2); assay: Ca2+-flux receptor response assay in Flip-In 293 cells stably expressing full-length T1r2a, T1r3 and Gα16-gust44; assay type: cell-based, O. latipes; settings: for ΔRFU: average ± s.e.m.
T1r2a/T1r3 full-length receptor, sequence (A0A173M0G2 entry or part of it): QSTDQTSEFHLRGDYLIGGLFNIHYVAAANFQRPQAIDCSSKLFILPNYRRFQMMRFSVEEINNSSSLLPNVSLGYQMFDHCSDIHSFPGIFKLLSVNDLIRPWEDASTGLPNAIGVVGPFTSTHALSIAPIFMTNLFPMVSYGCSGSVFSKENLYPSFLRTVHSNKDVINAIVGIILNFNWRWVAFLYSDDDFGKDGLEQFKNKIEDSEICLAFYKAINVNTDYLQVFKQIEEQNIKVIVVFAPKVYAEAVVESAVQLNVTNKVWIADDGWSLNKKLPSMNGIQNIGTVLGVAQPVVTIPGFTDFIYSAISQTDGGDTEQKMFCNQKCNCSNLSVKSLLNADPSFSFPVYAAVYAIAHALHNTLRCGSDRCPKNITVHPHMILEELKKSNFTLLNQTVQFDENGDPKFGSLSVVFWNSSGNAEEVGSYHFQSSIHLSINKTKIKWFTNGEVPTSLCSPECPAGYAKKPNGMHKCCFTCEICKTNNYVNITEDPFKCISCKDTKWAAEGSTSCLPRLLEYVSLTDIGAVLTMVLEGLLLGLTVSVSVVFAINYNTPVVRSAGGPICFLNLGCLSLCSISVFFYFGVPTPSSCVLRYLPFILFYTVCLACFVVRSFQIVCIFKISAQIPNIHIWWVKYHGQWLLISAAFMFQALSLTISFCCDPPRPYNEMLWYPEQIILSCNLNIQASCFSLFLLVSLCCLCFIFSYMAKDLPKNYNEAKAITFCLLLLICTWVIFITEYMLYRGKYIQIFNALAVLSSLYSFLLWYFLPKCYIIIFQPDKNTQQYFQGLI
T1r2a/T1r3 full-length receptor, sequence (A0A173M094 entry or part of it): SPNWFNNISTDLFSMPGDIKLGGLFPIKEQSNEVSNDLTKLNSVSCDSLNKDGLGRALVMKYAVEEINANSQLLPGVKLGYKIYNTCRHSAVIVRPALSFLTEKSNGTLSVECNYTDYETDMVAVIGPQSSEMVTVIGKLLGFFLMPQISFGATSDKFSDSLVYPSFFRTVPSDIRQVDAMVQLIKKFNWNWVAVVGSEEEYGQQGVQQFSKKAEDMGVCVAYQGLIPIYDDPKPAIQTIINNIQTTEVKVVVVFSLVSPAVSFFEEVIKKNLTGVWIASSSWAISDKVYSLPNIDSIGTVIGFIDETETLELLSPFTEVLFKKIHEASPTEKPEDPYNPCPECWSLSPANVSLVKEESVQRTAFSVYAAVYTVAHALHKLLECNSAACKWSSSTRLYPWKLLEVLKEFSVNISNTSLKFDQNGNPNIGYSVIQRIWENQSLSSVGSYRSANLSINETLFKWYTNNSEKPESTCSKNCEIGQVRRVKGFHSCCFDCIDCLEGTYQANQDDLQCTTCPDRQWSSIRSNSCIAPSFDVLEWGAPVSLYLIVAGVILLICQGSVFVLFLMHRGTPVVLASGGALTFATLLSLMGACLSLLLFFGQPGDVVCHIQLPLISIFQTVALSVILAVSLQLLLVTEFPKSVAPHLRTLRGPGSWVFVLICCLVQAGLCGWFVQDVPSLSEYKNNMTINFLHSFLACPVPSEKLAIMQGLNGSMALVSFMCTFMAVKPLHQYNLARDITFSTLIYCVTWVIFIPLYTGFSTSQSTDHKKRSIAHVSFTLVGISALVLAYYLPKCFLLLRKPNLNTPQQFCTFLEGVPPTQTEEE
Protocol: The Ca^2+-flux assay was performed using Flip-In 293 cell line (Life Technologies) stably expressing full-length T1r2a, T1r3, and Gα16-gust44 as described previously. The response stimulated by either 5 or 10 mM amino acid was represented asΔRFU (delta relative fluorescence unit) defined as the maximum fluorescence intensity induced by the addition of the amino acid, subtracted with that of an assay buffer in the absence of amino acid.

[2] = cited from earlier work; for Hydropathy Index: hydrophobicity/hydrophilicity, ref Kyte & Doolittle, J. Mol. Biol., 157, 105 (1982); for pI: ref Handbook of Chemistry and Physics, CRC Press; for logKd_CW (polarity): transfer from cyclohexane to an aqueous solution, ref Radzicka & Wolfenden, Biochemistry, 27, 1664 (1988); for Es'c (steric effects) / πα (hydrophobicity) / HP (hydration potential): α-substituent group; for Es'c (steric effects) / πα (hydrophobicity): ref Akamatsu et al., J. Pharm. Sci., 83, 1026 (1994); for HP (hydration potential): ref Wolfenden et al., Biochemistry, 20, 849 (1981)
[3] = 5 mM amino acid, n = 6 (n = 12 for L-glutamine)
[4] = estimated from ΔRFU at 10 mM by Hill equation, ΔRFUmax 104.3, read-out: EC50-est
[5] = from response at 10 mM, log 1/EC50-est, read-out: pEC50-est (converted)
[6] = from ΔTm at 0.1 mM via Eq 1, T0 326.1 K, ΔH0 72.1 kcal mol-1, read-out: Kd-app estimated at a single ligand concentration
[7] = from ΔTm at 1 mM via Eq 1, T0 326.1 K, ΔH0 72.1 kcal mol-1, read-out: Kd-app estimated at a single ligand concentration
[8] = from ΔTm at 10 mM via Eq 1, T0 326.1 K, ΔH0 72.1 kcal mol-1, read-out: Kd-app estimated at a single ligand concentration
[9] = log 1/Kd-app, converted from S1 Table values (10 mM; L-Ala 1 mM, L-Gln 0.1 mM)
[10] = from response at 10 mM, log 1/EC50-est

Row | Structure (SMILES) | ΔTm (medaka T1r2a/T1r3LBD; 0.1 mM amino acid) | ΔTm (medaka T1r2a/T1r3LBD; 1 mM amino acid) | ΔTm (medaka T1r2a/T1r3LBD; 10 mM amino acid) | ΔRFU [1, 3] | ΔRFU ([1]; 10 mM amino acid, n = 6) | EC50 [1, 4] | Hydropathy Index [2] | pI [2] | logKd_CW (polarity) [2] | Es'c (steric effects) [2] | πα (hydrophobicity) [2] | HP (hydration potential) [2] | potency estimated from few doses (medaka T1r2a/T1r3LBD; [8]) | pKd-app (medaka T1r2a/T1r3LBD; [9]) | pEC50-est [1, 10] | further results
1 | C[C@@H](N)C(=O)O [D-Ala, D-alanine] | 0.15 ± 0.05 K | -0.33 ± 0.07 K | -1.03 ± 0.09 K | 7.08 ± 2.16 | 23.6 ± 8.83 | 34.2 mM |  |  |  |  |  |  |  |  |  | effect on thermal stability / Tm shift of T1r2a/T1r3LBD (in words) (medaka T1r2a/T1r3LBD): thermal destabilization; Tm shift (in words) (medaka T1r2a/T1r3LBD; listed as D-alanine): did not induce a significant Tm shift; Tm shift (in words) (medaka T1r2a/T1r3LBD; listed as d-alanine): no substantial Tm shifts; potency estimated from few doses (medaka T1r2a/T1r3LBD; read-out: Kd-app estimated at a single ligand concentration, from ΔTm at 0.1 mM via Eq 1, T0 326.1 K, ΔH0 72.1 kcal mol-1): 1.95 mM; full-length receptor response (in words) ([1]; 5 or 10 mM, compared to enantiomer L-alanine): significantly weak responses; EC50 ([1]; estimated from ΔRFU at 5 mM by Hill equation, ΔRFUmax 104.3, read-out: EC50-est): 68.7 mM; EC50 ([1]; from response at 5 mM, log 1/EC50-est, read-out: pEC50-est (converted)): 69.2 mM; EC50 [1, 5]: 33.9 mM
2 | NC(=O)C[C@H](N)C(=O)O [L-Asn] | 0.12 ± 0.07 K | 0.38 ± 0.06 K | 4.36 ± 0.99 K | 0.460 ± 2.58 | 15.7 ± 6.13 | 56.3 mM | -3.5 | 5.41 | 4.88 | -0.98 | -0.52 | -9.68 | 3 mM | 2.52 | 1.25 | potency estimated from few doses (medaka T1r2a/T1r3LBD; [6]): 2.4 mM; potency estimated from few doses (medaka T1r2a/T1r3LBD; [7]): 7.33 mM
3 | N[C@@H](CC(=O)O)C(=O)O [L-Asp, L-aspartate] | -0.06 ± 0.17 K | -1.71 ± 0.19 K | 0.74 ± 0.05 K | -4.00 ± 1.10 | -9.43 ± 1.83 |  | -3.5 | 2.77 | 3.27 | -0.98 | 0.05 | -10.95 | 34.9 mM |  |  | effect on thermal stability / Tm shift of T1r2a/T1r3LBD (in words) (medaka T1r2a/T1r3LBD): destabilized the protein; Kd (medaka T1r2a/T1r3LBD; log 1/Kd-app, converted from S1 Table values (10 mM; L-Ala 1 mM, L-Gln 0.1 mM), read-out: pKd-app (converted)): 34.7 mM
4 | N[C@@H](Cc1c[nH]cn1)C(=O)O [L-His] | -3.75 ± 0.33 K | 1.21 ± 0.02 K | 5.81 ± 0.07 K | 4.72 ± 2.39 | 14.4 ± 6.62 | 62.4 mM | -3.2 | 7.59 | 3.34 | -0.86 | 0.17 | -10.27 | 1.67 mM | 2.78 | 1.20 | potency estimated from few doses (medaka T1r2a/T1r3LBD; [7]): 1.96 mM
5 | CC[C@H](C)[C@H](N)C(=O)O [L-Ile] | -0.50 ± 0.11 K | -0.57 ± 0.07 K | 2.89 ± 2.40 K | 2.90 ± 2.82 | 30.5 ± 6.26 | 24.2 mM | 4.5 | 6.02 | -3.62 | -1.81 | 1.43 | 2.15 | 6.04 mM | 2.22 | 1.62 | 
6 | CC(C)C[C@H](N)C(=O)O [L-Leu] | 0.08 ± 0.09 K | -0.94 ± 0.07 K | 6.91 ± 0.05 K | 0.933 ± 1.91 | 27.8 ± 5.89 | 27.5 mM |  |  | -3.62 | -1.44 | 1.52 | 2.28 | 1.11 mM | 2.96 | 1.56 | potency estimated from few doses (medaka T1r2a/T1r3LBD; [6]): 3.49 mM
7 | NCCCC[C@H](N)C(=O)O [L-Lys, L-lysine] | -0.04 ± 0.03 K | -0.40 ± 0.17 K | -3.83 ± 0.30 K | 8.68 ± 4.29 | 18.5 ± 8.01 |  |  |  |  |  |  |  |  |  |  | effect on thermal stability / Tm shift of T1r2a/T1r3LBD (in words) (medaka T1r2a/T1r3LBD; listed as L-lysine): thermal destabilization; effect on thermal stability / Tm shift of T1r2a/T1r3LBD (in words) (medaka T1r2a/T1r3LBD; listed as lysine): destabilized the protein; EC50 ([1]; EC50-est, estimated from ΔRFU at 5 mM by Hill equation, ΔRFUmax 104.3): 55.1 mM; EC50 ([1]; EC50-est, estimated from ΔRFU at 10 mM by Hill equation, ΔRFUmax 104.3): 46.5 mM; EC50 ([1]; pEC50-est, from response at 5 mM, log 1/EC50-est): 55 mM; EC50 ([1]; pEC50-est, from response at 10 mM, log 1/EC50-est): 46.8 mM
8 | O=C(O)[C@@H]1CCCN1 [L-Pro, L-proline] | -0.15 ± 0.04 K | 0.04 ± 0.07 K | 7.24 ± 0.02 K | 2.90 ± 1.93 | 45.1 ± 7.06 | 13.2 mM |  |  |  |  |  |  |  |  |  | potency estimated from few doses (medaka T1r2a/T1r3LBD; read-out: Kd-app estimated at a single ligand concentration, from ΔTm at 1 mM via Eq 1, T0 326.1 K, ΔH0 72.1 kcal mol-1): 79.9 mM; potency estimated from few doses (medaka T1r2a/T1r3LBD; read-out: Kd-app estimated at a single ligand concentration, from ΔTm at 10 mM via Eq 1, T0 326.1 K, ΔH0 72.1 kcal mol-1): 0.985 mM; EC50 [1, 5]: 13.2 mM
